Data: patent publication US20100248390A1, “COMPOSITIONS AND METHODS FOR IDENTIFYING LIGANDS OF ODORANT RECEPTORS” (DUKE UNIVERSITY, priority 2009, published 2010)
Read-outs that look alike come from different tables or passages of the source.

Experiments:
[1] = biological target: T1, human odorant receptors (ORs) (Homo sapiens, UniProt Q9Y3N9); test: CRE-luciferase assay of odorant receptor activation (Dual-Glo, Hana3A cells, RTP1S), dose-response EC50; assay type: cell-based
T1 construct: OR open reading frames were amplified from genomic DNA; expressed in transfected cells; host or cells: Hana3A cells, co-transfected with RTP1S, CRE-luciferase and pRL-SV40
T1 sequence (Q9Y3N9 1-320): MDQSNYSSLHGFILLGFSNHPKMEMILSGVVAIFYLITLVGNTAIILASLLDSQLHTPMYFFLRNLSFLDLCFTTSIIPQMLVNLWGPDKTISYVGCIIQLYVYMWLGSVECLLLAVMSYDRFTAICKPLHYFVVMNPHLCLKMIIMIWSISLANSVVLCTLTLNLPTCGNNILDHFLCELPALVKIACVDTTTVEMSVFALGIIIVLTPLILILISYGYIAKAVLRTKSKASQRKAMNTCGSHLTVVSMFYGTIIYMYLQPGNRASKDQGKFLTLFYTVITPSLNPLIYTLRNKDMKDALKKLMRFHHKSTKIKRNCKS
Procedure, shortened: (§1)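 Hana3A cells were co-transfected with Rho-tagged OR, RTP1S, CRE-luciferase and pRL-SV40, then exposed to odorant in CD293 medium for 4 hrs at 37° C. Firefly luminescence was divided by Renilla and normalized as (LN−Lmin)/(Lmax−Lmin) per plate set. Each dose was tested at least three times, and EC50 came from sigmoidal fits.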

[2] = biological target: T2, human odorant receptors (ORs) (Homo sapiens, UniProt Q9P1Q5); test: as above; assay type: cell-based
T2 construct: OR open reading frames were amplified from genomic DNA; expressed in transfected cells; host or cells: Hana3A cells, co-transfected with RTP1S, CRE-luciferase and pRL-SV40
T2 sequence (Q9P1Q5 1-309): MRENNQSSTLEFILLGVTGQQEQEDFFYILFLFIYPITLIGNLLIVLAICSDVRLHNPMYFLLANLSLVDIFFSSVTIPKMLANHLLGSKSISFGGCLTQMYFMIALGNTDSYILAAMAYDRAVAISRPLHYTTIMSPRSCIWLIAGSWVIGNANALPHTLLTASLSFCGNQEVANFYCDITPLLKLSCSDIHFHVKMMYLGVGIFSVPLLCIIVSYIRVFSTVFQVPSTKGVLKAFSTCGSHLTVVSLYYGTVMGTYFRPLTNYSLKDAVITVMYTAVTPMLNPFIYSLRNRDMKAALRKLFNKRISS
Procedure, shortened: as §1

[3] = receptor OR2W1, read-out: log EC50 of odorant at OR2W1 (0 = no response) (converted)
[4] = receptor OR1A1, 0 = no response
[5] = receptor OR2W1, 0 = no response
[6] = receptor OR1A1, read-out: log EC50 of odorant at OR1A1 (0 = no response) (converted)
[7] = receptor OR1A1, read-out: log EC50 (Table 4 value), OR1A1 (converted)
[8] = receptor OR2W1, read-out: log EC50 (Table 4 value), OR2W1 (converted)
[9] = receptor OR1A1, 0 = no response, read-out: log EC50, OR1A1 (converted)
[10] = receptor OR2W1, 0 = no response, read-out: log EC50, OR2W1 (converted)

CCCCCCCCC(=O)O [Nonanoic acid]
EC50 [1, 3]: 189 µM

C=C(C)[C@H]1CC=C(C)C(=O)C1 [(+)-Carvone]
log EC50, OR1A1 [2, 4]: −5.035 | log EC50, OR2W1 [1, 5]: −4.646

C=C(C)C1CC=C(C)C(=O)C1 (single isomer, unassigned; (-)) [(−)-Carvone]
log EC50, OR1A1 [2, 4]: −5.765 | log EC50, OR2W1 [1, 5]: −4.657

CCCCCCCCCS [Nonanethiol]
EC50 [2, 6]: 571 µM | EC50 [1, 3]: 86.1 µM

CC(C)=CCC/C(C)=C/CO [Getaniol]
EC50 [2, 7]: 341 µM | EC50 [1, 8]: 18.4 µM

O=C1CCOc2ccccc21 [4-Chromanone]
EC50 [2, 7]: 462 µM | EC50 [1, 8]: 91 µM

CCCCCCCCS [Octanethiol]
EC50 [2, 6]: 594 µM | EC50 [1, 3]: 92.7 µM

CCCCCCCO [1-Heptanol]
EC50 [2, 9]: 971 µM | EC50 [1, 10]: 14.8 µM

CC(C)=CCCC(C)CCO (single isomer, unassigned; (-)) [(−)-b-C ? inedol]
EC50 [2, 9]: 91.4 µM | EC50 [1, 10]: 7.8 µM

C=C(C)[C@@H]1CC[C@@H](C)C(=O)C1 [(+)-Dihydrocarvone]
log EC50, OR1A1 [2, 4]: −4.992 | log EC50, OR2W1 [1, 5]: −4.755

O=c1ccc2ccccc2o1 [Coumarin]
EC50 [1, 8]: 86.1 µM

CCCCCC1=C(C)CCC1=O [Dihydroiasmone]
log EC50 (Table 4 value), OR1A1 ([2]; receptor OR1A1): −7.242 | log EC50 (Table 4 value), OR2W1 ([1]; receptor OR2W1): −4.246

C=CCOC(=O)Cc1ccccc1 [Allyl phenylacetate]
EC50 [2]: 7.6 µM | EC50 [1]: 15.4 µM

CC(=O)c1ccccc1 [Acetophenone]
EC50 [1, 8]: 42.5 µM

CCCCCCCC(=O)O [Octanoic Acid]
EC50 [1, 3]: 14.2 µM

CC(=O)OCc1ccccc1 [Benzyl acetate]
EC50 [2, 7]: 406 µM | EC50 [1, 8]: 16.4 µM

CCCCCCCCCCO [1-Decanol]
EC50 [2]: 828 µM | EC50 [1]: 43.2 µM

CC(=O)Oc1ccccc1 [Phenyl acetate]
EC50 [1, 3]: 84.9 µM
